Measurements from the NIST ThermoML archive (doi:10.1016/j.jct.2005.12.010).
Where “and” joins values, the source holds several entries; their conditions need not be identical. Equal entries are not always repeated. Numbers after ± are expanded uncertainties.

Key:
[1] = 101 kPa, Liquid
[2] = xn = mol fraction of the nth substance listed; conditions: 101 kPa, Liquid

CCCCO [butan-1-ol]
[1]
Conditions | mass density [kg/m3] | speed of sound [m/s] | viscosity [mPa·s]
293.15 K | 809.5 ± 0.85 | 1257 ± 1 | 2.941 ± 0.13
298.15 K | 805.75 ± 0.86 | 1240 ± 1 | 2.571 ± 0.12
303.15 K | 801.8 ± 0.87 | 1224 ± 1 | 2.255 ± 0.1

CCCCO [butan-1-ol] + CC1CCCC1
[2], x2 = 0
Conditions | speed of sound [m/s]
293.15 K | 1257 ± 1
298.15 K | 1240 ± 1
303.15 K | 1224 ± 1

CCC(C)O (stereo unspecified) [butan-2-ol]
[1]
Conditions | mass density [kg/m3] | speed of sound [m/s] | viscosity [mPa·s]
293.15 K | 806.84 ± 0.88 | 1230 ± 1 | 3.623 ± 0.16
298.15 K | 802.72 ± 0.89 | 1212 ± 1 | 2.995 ± 0.13
303.15 K | 798.51 ± 0.9 | 1194 ± 1 | 2.493 ± 0.11

CCC(C)O (stereo unspecified) [butan-2-ol] + CC1CCCC1
[2], x2 = 0
Conditions | speed of sound [m/s]
293.15 K | 1230 ± 1
298.15 K | 1212 ± 1
303.15 K | 1194 ± 1

CCO [ethanol]
[1]
Conditions | mass density [kg/m3] | speed of sound [m/s] | viscosity [mPa·s]
293.15 K | 789.75 ± 0.91 | 1162 ± 1 | 1.187 ± 0.057
298.15 K | 785.46 ± 0.92 | 1145 ± 1 | 1.082 ± 0.053
303.15 K | 781.15 ± 0.94 | 1128 ± 1 | 0.987 ± 0.049

CCO [ethanol] + CC1CCCC1
[2], x2 = 0
Conditions | mass density [kg/m3] | speed of sound [m/s]
293.15 K | 789.75 ± 0.91 | 1162 ± 1
298.15 K | 785.46 ± 0.92 | 1145 ± 1
303.15 K | 781.15 ± 0.94 | 1128 ± 1

CC1CCCC1 [methylcyclopentane]
[1]
Conditions | mass density | speed of sound [m/s] | viscosity [mPa·s]
293.15 K | 746.64 ± 2.2 kg/m3 | 1197 ± 5 | 0.504 ± 0.031
298.15 K | 741.94 ± 2.2 kg/m3 and 741.9 ± 2.2 kg/m3 | 1174 ± 5 | 0.476 ± 0.029
303.15 K | 737.21 ± 2.2 kg/m3 | 1150 ± 5 | 0.45 ± 0.028

CC1CCCC1 [methylcyclopentane] + CC(C)O
speed of sound [m/s], [2]
Conditions | 293.15 K | 298.15 K | 303.15 K
x1 = 0.0478 | 1154 ± 5 | 1136 ± 5 | 1118 ± 5
x1 = 0.1003 | 1152 ± 5 | 1134 ± 5 | 1115 ± 5
x1 = 0.2092 | 1150 ± 5 | 1130 ± 5 | 1110 ± 5
x1 = 0.2989 | 1150 ± 5 | 1129 ± 5 | 1108 ± 5
x1 = 0.4151 | 1150 ± 5 | 1129 ± 5 | 1108 ± 5
x1 = 0.4967 | 1152 ± 5 | 1131 ± 5 | 1109 ± 5
x1 = 0.603 | 1156 ± 6 | 1134 ± 6 | 1111 ± 6
x1 = 0.7118 | 1162 ± 6 | 1140 ± 6 | 1117 ± 6
x1 = 0.8061 | 1170 ± 6 | 1147 ± 6 | 1124 ± 6
x1 = 0.9026 | 1180 ± 7 | 1157 ± 7 | 1134 ± 7
x1 = 0.9555 | 1187 ± 7 | 1164 ± 7 | 1141 ± 7
x1 = 1 | 1197 ± 7 | 1174 ± 7 | 1150 ± 7

CC1CCCC1 [methylcyclopentane] + CCC(C)O
speed of sound [m/s], [2]
Conditions | 293.15 K | 298.15 K | 303.15 K
x1 = 0.0503 | 1223 ± 2 | 1204 ± 2 | 1186 ± 2
x1 = 0.0966 | 1216 ± 2 | 1198 ± 2 | 1179 ± 2
x1 = 0.198 | 1205 ± 2 | 1185 ± 2 | 1165 ± 2
x1 = 0.3041 | 1194 ± 2 | 1173 ± 2 | 1153 ± 2
x1 = 0.4088 | 1186 ± 3 | 1164 ± 3 | 1143 ± 3
x1 = 0.5084 | 1180 ± 3 | 1158 ± 3 | 1137 ± 3
x1 = 0.5961 | 1177 ± 3 | 1155 ± 3 | 1133 ± 3
x1 = 0.7045 | 1176 ± 4 | 1154 ± 4 | 1132 ± 4
x1 = 0.8151 | 1180 ± 4 | 1157 ± 4 | 1134 ± 4
x1 = 0.9065 | 1185 ± 5 | 1162 ± 5 | 1139 ± 5
x1 = 0.9532 | 1189 ± 5 | 1166 ± 5 | 1143 ± 5
x1 = 1 | 1197 ± 5 | 1174 ± 5 | 1150 ± 5

CC1CCCC1 [methylcyclopentane] + CCCC(C)O
speed of sound [m/s], [2]
Conditions | 293.15 K | 298.15 K | 303.15 K
x1 = 0.0484 | 1244 ± 2 | 1225 ± 2 | 1206 ± 2
x1 = 0.0999 | 1236 ± 2 | 1217 ± 2 | 1198 ± 2
x1 = 0.1949 | 1223 ± 2 | 1203 ± 2 | 1183 ± 2
x1 = 0.3177 | 1207 ± 3 | 1187 ± 3 | 1167 ± 3
x1 = 0.4017 | 1198 ± 3 | 1178 ± 3 | 1157 ± 3
x1 = 0.4945 | 1190 ± 3 | 1169 ± 3 | 1149 ± 3
x1 = 0.6131 | 1184 ± 4 | 1163 ± 4 | 1141 ± 4
x1 = 0.7107 | 1183 ± 4 | 1161 ± 4 | 1139 ± 4
x1 = 0.815 | 1183 ± 4 | 1161 ± 4 | 1138 ± 4
x1 = 0.9083 | 1187 ± 5 | 1164 ± 5 | 1141 ± 5
x1 = 0.9535 | 1190 ± 5 | 1167 ± 5 | 1144 ± 5
x1 = 1 | 1197 ± 5 | 1174 ± 5 | 1150 ± 5

CC1CCCC1 [methylcyclopentane] + CCCCO
speed of sound [m/s], [2]
Conditions | 293.15 K | 298.15 K | 303.15 K
x1 = 0.0485 | 1250 ± 1 | 1233 ± 1 | 1216 ± 1
x1 = 0.0993 | 1243 ± 2 | 1226 ± 2 | 1208 ± 2
x1 = 0.1973 | 1231 ± 2 | 1213 ± 2 | 1194 ± 2
x1 = 0.3038 | 1219 ± 2 | 1200 ± 2 | 1180 ± 2
x1 = 0.4036 | 1210 ± 3 | 1190 ± 3 | 1169 ± 3
x1 = 0.5055 | 1202 ± 3 | – | –
x1 = 0.5078 | – | 1181 ± 3 | 1160 ± 3
x1 = 0.6152 | 1195 ± 3 | 1173 ± 3 | 1151 ± 3
x1 = 0.7053 | 1191 ± 4 | 1169 ± 4 | 1146 ± 4
x1 = 0.8132 | 1189 ± 4 | 1166 ± 4 | 1143 ± 4
x1 = 0.9096 | 1190 ± 5 | 1166 ± 5 | 1143 ± 5
x1 = 0.9537 | 1191 ± 5 | 1168 ± 5 | 1145 ± 5
x1 = 1 | 1197 ± 5 | 1174 ± 5 | 1150 ± 5

CC1CCCC1 [methylcyclopentane] + CCCO
speed of sound [m/s], [2]
Conditions | 293.15 K | 298.15 K | 303.15 K
x1 = 0.0475 | 1217 ± 2 | 1199 ± 2 | 1182 ± 2
x1 = 0.0967 | 1211 ± 2 | 1193 ± 2 | 1175 ± 2
x1 = 0.2055 | 1201 ± 2 | 1182 ± 2 | 1163 ± 2
x1 = 0.2984 | 1195 ± 3 | 1175 ± 3 | 1155 ± 3
x1 = 0.4014 | 1189 ± 3 | 1169 ± 3 | 1148 ± 3
x1 = 0.5007 | 1185 ± 3 | 1164 ± 3 | 1142 ± 3
x1 = 0.6133 | 1183 ± 4 | 1161 ± 4 | 1139 ± 4
x1 = 0.7115 | 1183 ± 4 | 1160 ± 4 | 1137 ± 4
x1 = 0.8124 | 1184 ± 4 | 1161 ± 4 | 1138 ± 4
x1 = 0.9073 | 1188 ± 5 | 1164 ± 5 | 1141 ± 5
x1 = 0.9529 | 1191 ± 5 | 1167 ± 5 | 1144 ± 5
x1 = 1 | 1197 ± 5 | 1174 ± 5 | 1150 ± 5

CC1CCCC1 [methylcyclopentane] + CCO
[2]
Conditions | mass density, 293.15 K [kg/m3] | mass density, 298.15 K [kg/m3] | mass density, 303.15 K [kg/m3] | speed of sound, 293.15 K [m/s] | speed of sound, 298.15 K [m/s] | speed of sound, 303.15 K [m/s]
x1 = 0.0475 | 784.54 ± 0.94 | 780.2 ± 0.95 | 775.84 ± 0.96 | 1156 ± 1 | 1138 ± 1 | 1121 ± 1
x1 = 0.0967 | 780 ± 0.97 | 775.6 ± 0.99 | 771.3 ± 1 | 1153 ± 1 | 1135 ± 1 | 1117 ± 1
x1 = 0.2055 | 771.61 ± 1.1 | 767.12 ± 1.1 | 762.58 ± 1.1 | 1149 ± 2 | 1130 ± 2 | 1111 ± 2
x1 = 0.2984 | 766.18 ± 1.2 | 761.61 ± 1.2 | 756.99 ± 1.2 | 1150 ± 2 | 1130 ± 2 | 1110 ± 2
x1 = 0.4014 | 761.37 ± 1.3 | 756.73 ± 1.3 | 752.03 ± 1.3 | 1153 ± 3 | 1132 ± 2 | 1111 ± 2
x1 = 0.5007 | 757.5 ± 1.4 | 752.79 ± 1.4 | 748.03 ± 1.4 | 1158 ± 3 | 1136 ± 3 | 1114 ± 3
x1 = 0.6133 | 753.79 ± 1.6 | 749.03 ± 1.6 | 744.21 ± 1.6 | 1163 ± 3 | 1141 ± 3 | 1118 ± 3
x1 = 0.7115 | 751.2 ± 1.7 | 746.42 ± 1.7 | 741.58 ± 1.8 | 1168 ± 4 | 1146 ± 4 | 1123 ± 4
x1 = 0.8124 | 748.98 ± 1.9 | 744.19 ± 1.9 | 739.34 ± 1.9 | 1175 ± 4 | 1152 ± 4 | 1129 ± 4
x1 = 0.9073 | 747.36 ± 2.1 | 742.58 ± 2.1 | 737.75 ± 2.1 | 1183 ± 5 | 1159 ± 5 | 1136 ± 5
x1 = 0.9529 | 746.95 ± 2.1 | 742.17 ± 2.1 | 737.35 ± 2.1 | 1188 ± 5 | 1164 ± 5 | 1141 ± 5
x1 = 1 | 746.64 ± 2.2 | 741.94 ± 2.2 | 737.21 ± 2.2 | 1197 ± 5 | 1174 ± 5 | 1150 ± 5

CCCC(C)O (stereo unspecified) [pentan-2-ol]
[1]
Conditions | mass density [kg/m3] | speed of sound [m/s] | viscosity [mPa·s]
293.15 K | 809.04 ± 0.94 | 1250 ± 2 | 4.001 ± 0.18
298.15 K | 805.01 ± 0.95 | 1232 ± 2 | 3.273 ± 0.15
303.15 K | 800.9 ± 0.96 | 1214 ± 2 | 2.774 ± 0.12

CCCC(C)O (stereo unspecified) [pentan-2-ol] + CC1CCCC1
[2], x2 = 0
Conditions | speed of sound [m/s]
293.15 K | 1250 ± 2
298.15 K | 1232 ± 2
303.15 K | 1214 ± 2

CCCO [propan-1-ol]
[1]
Conditions | mass density [kg/m3] | speed of sound [m/s] | viscosity [mPa·s]
293.15 K | 803.59 ± 0.95 | 1223 ± 2 | 2.159 ± 0.099
298.15 K | 799.58 ± 0.96 | 1206 ± 2 | 1.915 ± 0.089
303.15 K | 795.55 ± 0.97 | 1189 ± 2 | 1.713 ± 0.08

CCCO [propan-1-ol] + CC1CCCC1
[2], x2 = 0
Conditions | speed of sound [m/s]
293.15 K | 1223 ± 2
298.15 K | 1206 ± 2
303.15 K | 1189 ± 2

CC(C)O [propan-2-ol]
[1]
Conditions | mass density [kg/m3] | speed of sound [m/s] | viscosity [mPa·s]
293.15 K | 785.07 ± 0.92 | 1156 ± 5 | 2.382 ± 0.11
298.15 K | 780.9 ± 0.9 | 1139 ± 5 | 2.045 ± 0.094
303.15 K | 776.6 ± 0.95 | 1121 ± 5 | 1.763 ± 0.082

CC(C)O [propan-2-ol] + CC1CCCC1
[2], x2 = 0
Conditions | speed of sound [m/s]
293.15 K | 1156 ± 5
298.15 K | 1139 ± 5
303.15 K | 1121 ± 5
